Read-outs that look alike come from different tables or passages of the source.
Assays:
[1] = system: DENVGFP; assay: microbe, parasite or virus in culture; format: cell-based, dengue virus
[2] = system: VSV-G-pseudotyped HIV-1GFP; assay: cells; format: cell-based, human immunodeficiency virus-1; settings: for EC50: read-out: EC50 HIVGFP
[3] = in vitro; settings: human
Protocol: (§1) To account for non-specific antiviral activity caused by enhanced cell death, the cytotoxicity of P. maritimum isolated AAs was first determined in THP-1 and Huh7 virus-targeted cell lines exposed to concentrations ranging from 0.05 to 200 µM for 72 h. Cell viability was measured using ATP levels as a marker.
(§2) The monocytic cell line THP-1 derived from an acute monocytic leukemia patient was used in HIV-1GFP infection assays, while the hepatocyte-derived carcinoma cell line Huh7 was used with DENVGFP. Cell viability was evaluated using the Cell-Titer GLO assay kit (Promega, Madison, WI, USA) as previously described. Briefly, 7.5 × 10^3 Huh7 cells/well or 4 × 10^4 THP-1 cells/well were seeded in 96-well dark plates and treated with isolated AAs dissolved in methanol at concentrations ranging from 0.05 to 200 µM for 72 h. Afterwards, Cell-Titer GLO reagent was added in each well of room temperature-equilibrated plates. Luminescence was measured 10 min after shaking the plates for 2 min using a microplate spectrophotometer (Synergy H1, Biotek, Québec, QC, Canada). The percentage of viable cells was calculated at each concentration relatively to cells treated with matched concentrations of MetOH.

[4] = system: Huh7 cells; assay: Cytotoxicity in Huh7 cells (ATP levels, Cell-Titer GLO)
Protocol: as §1, §2

[5] = Cytotoxicity in THP-1 cells (ATP levels, Cell-Titer GLO); settings: human
Protocol: as §1, §2

[6] = system: A431 cells; settings: for reduction of A431 cell viability: 10 µM, 24 h of treatment, MTT; for cytotoxic activity on A431 cells: in words
Protocol: (§3) The potential cytotoxic activity of P. maritimum alkaloids was evaluated on Hacat, A431 and AGS cells treated with concentrations ranging from 0.5 to 10 µM for 24 and 48 h by measuring the reduction of 3-(4,5-dimethylthiazol-2) 2,5- diphenyltetrazolium bromide (MTT) to formazan by the mitochondrial enzyme succinate dehydrogenase.
(§4) HaCaT, spontaneously immortalized keratinocytes from adult skin, and AGS gastric adenocarcinoma cells were purchased from Service Cell Line (GmBH, Eppelheim, CLS, Germany). A431 (ATCC-CRL1555) human epidermoid carcinoma cells were from American Type Culture Collection (ATCC, Manassas, VA, USA). All mentioned cell lines were cultured in Dulbecco’s Modified Eagle’s Medium (DMEM, Sigma Chemical Co., St. Louis, MO, USA) supplemented with 10% fetal bovine serum (FBS, Hyclone Laboratories, Inc. Logan, UT, USA) at 37 °C in a humidified atmosphere of 5% CO2. Absence of mycoplasma contamination was verified for all cell lines. The purified alkaloids were resuspended in DMSO and added to the cell medium at concentrations varying from 0.5 to 50 µM as indicated.
(§5) Cell viability was evaluated by measuring the reduction of 3-(4,5-dimethylthiazol-2) 2,5-diphenyltetrazolium bromide (MTT) to formazan by the mitochondrial enzyme succinate dehydrogenase. Briefly, 10 × 10^3 cells were seeded on 96-well plates and exposed to different concentrations of total extract or metabolites for 48 h. and 72 h. MTT/PBS solution (0.5 mg/mL) was then added to the wells and incubated for 3 h at 37 °C in a humidified atmosphere. The reaction was stopped by removal of the supernatant followed by dissolving the formazan product in acidic isopropanol and the optical density was measured with Synergy H4 microplate reader Gen5 2.07 (Thermofisher, Waltham, MA, USA) using a 570 nm filter. Under these experimental conditions, no undissolved formazan crystals were observed. Cell viability was assessed by comparing the optical density of the treated samples compared to the controls. Statistical analyses were carried out using the GraphPad Prism version 8.1.2 (https://www.graphpad.com/scientific-software/prism/ (accessed on 18 December 2021)). Data were represented as the mean standard deviation and analyzed for statistical significance using ordinary one-way analysis of variance (ANOVA) and multiple comparisons. For all tests, p < 0.05 was considered to indicate a statistically significant difference.

[7] = system: AGS cells; assay: MTT viability test, AGS cells; format: cell-based; settings: for IC50: Homo sapiens, AGS; for cytotoxic activity on AGS cells: in words; for effect on AGS cell viability: 0.5 to 50 µM, 24 and 48 h
Protocol: as §3, §4
Cell viability was evaluated by measuring the reduction of 3-(4,5-dimethylthiazol-2) 2,5-diphenyltetrazolium bromide (MTT) to formazan by the mitochondrial enzyme succinate dehydrogenase. Briefly, 10 × 10^3 cells were seeded on 96-well plates and exposed to different concentrations of total extract or metabolites for 48 h. and 72 h. MTT/PBS solution (0.5 mg/mL) was then added to the wells and incubated for 3 h at 37 °C in a humidified atmosphere. The reaction was stopped by removal of the supernatant followed by dissolving the formazan product in acidic isopropanol and the optical density was measured with Synergy H4 microplate reader Gen5 2.07 (Thermofisher, Waltham, MA, USA) using a 570 nm filter. Under these experimental conditions, no undissolved formazan crystals were observed. Cell viability was assessed by comparing the optical density of the treated samples compared to the controls. […] Data were represented as the mean standard deviation and analyzed for statistical significance using ordinary one-way analysis of variance (ANOVA) and multiple comparisons. For all tests, p < 0.05 was considered to indicate a statistically significant difference.

[8] = system: THP-1 cells; assay: Cytotoxicity in THP-1 cells (ATP levels, Cell-Titer GLO); settings: 72 h; for live THP-1 cells: 6.25 µM
Protocol: as §1, §2

[9] = system: Hacat cells; settings: for reduction of Hacat cell viability: 10 µM, 24 h of treatment, MTT; for cytotoxic activity on Hacat cells: in words
Protocol: as §3, §4, §5

[10] = system: A431 cells; assay: cells; settings: Homo sapiens, A-431, read-out: IC50 A431
Protocol: as §3, §4, §5

[11] = system: Hacat cells; assay: cells; settings: Homo sapiens, read-out: IC50 Hacat
Protocol: as §3, §4, §5

[12] = Dengue virus, Huh-7, 72 h, read-out: EC50 DENVGFP, Huh7 cells, MOI = 0.02, 72 h
[13] = Dengue virus, Huh-7, read-out: EC50 DENV, Huh7 cells
[14] = MTT, time not stated, read-out: IC50 AGS
[15] = read-out: EC50 DENVGFP, Huh7 cells, MOI = 0.02, 72 h

For `OC1C=CC23c4cc5c(cc4CN(CC2O)C3C1)OCO5` (centres unmarked) [11-Hydroxyvittatine], the EC50 [1, 12] was 3.92 µM, the “inhibition of HIV-1GFP, dose dependence” value [2] was “dose-dependent inhibition of HIV-1” and the EC50 ([2]; Homo sapiens, THP-1, 72 h) was 65.1 µM. For the same compound, the viability at 72 h, 50 µM [3] was 73.8%, the “concentration at which Huh7 cell viability is reduced” value ([4]; 72 h) was “higher than 50 µM” and the viability at 72 h, 100 µM [5] was 52.3%. For the same compound, the CC50 at 72 h ([5]; CC50 THP-1, 72 h, ATP levels) was 113 µM.
In the case of `COC1C=CC23c4cc5c(cc4CN(CC2O)C3C1)OCO5` (centres unmarked) [Haemanthamine], the “DENVGFP inhibition at 1.56 µM” value ([1]; Huh7 cells) is reported as “Complete inhibition”, the EC50 [1, 12] is reported as 0.34 µM and the EC50 [1, 13] is reported as 0.337 µM. The “reduction of A431 cell viability” value [6] was 15–30%, the IC50 ([7]; 24 h, read-out: IC50 AGS cells at 24 h) was 7.5 µM and the IC50 ([7]; MTT, 48 h, read-out: IC50 AGS cells at 48 h) was 7.5 µM. For the same compound, the IC50 [7, 14] was 7.5 µM, the “HIV-1GFP inhibition at 100 µM” value [2] was “Complete viral inhibition” and the “inhibition of HIV-1GFP, dose dependence” value [2] was “dose-dependent inhibition of HIV-1”. The EC50 ([2]; Homo sapiens, THP-1, 72 h) was 25.3 µM, the EC50 [2] was 25.3 µM and the “live Huh7 cells” value ([4]; 3.125 µM, 72 h) was 82.2%. For the same compound, the “concentration at which Huh7 cell viability is reduced” value ([4]; 72 h) was “above 3.125 µM”, the “live THP-1 cells” value [8] was 71% and the “concentration at which THP-1 cell viability begins to decrease” value (“concentration … to decrease” for short) [8] was 3.125 µM. The CC50 ([8]; read-out: CC50 THP-1, ATP levels) was 22.2 µM, the CC50 at 72 h ([5]; CC50 THP-1, 72 h, ATP levels) was 22.2 µM and the “reduction of Hacat cell viability” value [9] was 15–30%.
In the case of `CO[C@@H]1C=C[C@@]23c4cc5c(cc4C(O)N(C[C@@H]2O)[C@H]3C1)OCO5` (some centres unmarked) [Haemanthidine], the “DENVGFP inhibition at 1.56 µM” value ([1]; Huh7 cells) is reported as “Complete inhibition”, the EC50 [1, 12] is reported as 0.48 µM and the EC50 [1, 13] is reported as 0.476 µM. For the same compound, the “reduction of A431 cell viability” value [6] was 15–30%, the “cytotoxic activity on A431 cells” value [6] was “showed cytotoxic activity” and the IC50 [7, 14] was 5 µM. For the same compound, the “cytotoxic activity on AGS cells” value [7] was “showed cytotoxic activity”, the “HIV-1GFP inhibition at 100 µM” value [2] was “Complete viral inhibition” and the “inhibition of HIV-1GFP, dose dependence” value [2] was “dose-dependent inhibition of HIV-1”. The EC50 ([2]; Homo sapiens, THP-1, 72 h) was 12.7 µM, the EC50 [2] was 12.7 µM and the “live Huh7 cells” value ([4]; 6.25 µM, 72 h) was 83.3%. For the same compound, the “concentration at which Huh7 cell viability is reduced” value ([4]; 72 h) was 6.25 µM, the “live THP-1 cells” value [8] was 71% and the “concentration … to decrease” value [8] was 3.125 µM. The CC50 at 72 h ([5]; CC50 THP-1, 72 h, ATP levels) was 16.8 µM, the “reduction of Hacat cell viability” value [9] was 15–30% and the “cytotoxic activity on Hacat cells” value [9] was “showed cytotoxic activity”.
With `COc1cc2c(cc1OC)[C@H]1[C@H]3C(=CC[C@H]1OC2=O)CCN3C` [Homolycorine] the EC50 [1, 12] was 65 µM and the EC50 [1, 15] was 65 µM.
For `O[C@H]1[C@H]2c3cc4c(cc3CN3CCC(=C[C@@H]1O)[C@H]23)OCO4` [Lycorine], the IC50 [10] was 0.5 µM, the “DENVGFP inhibition at 1.56 µM” value ([1]; Huh7 cells) was “Complete inhibition” and the EC50 [1, 12] was 0.386 µM. The EC50 [1, 15] was 0.39 µM, the “cytotoxic activity on A431 cells” value [6] was “showed cytotoxic activity” and the IC50 [7, 14] was less than 0.5 µM. For the same compound, the “cytotoxic activity on AGS cells” value [7] was “showed cytotoxic activity”, the “HIV-1GFP inhibition at 100 µM” value [2] was “Complete viral inhibition” and the “inhibition of HIV-1GFP, dose dependence” value [2] was “dose-dependent inhibition of HIV-1”. The EC50 ([2]; Homo sapiens, THP-1, 72 h) was 10.9 µM, the “reduction of Huh7 viability” value ([4]; 0.78 µM, 72 h) was 21% and the “reduction of Huh7 cell viability” value ([4]; 1.56 µM) was 25%. The CC50 ([8]; human) was 4.61 µM, the CC50 at 72 h ([5]; CC50 THP-1) was 4.6 µM and the IC50 [11] was 0.5 µM. For the same compound, the “cytotoxic activity on Hacat cells” value [9] was “showed cytotoxic activity”.
In the case of `CO[C@@H]1C=C[C@@]23c4cc5c(cc4CN(CCc4ccc(O)cc4)[C@@H]2C(=O)N(C)[C@H]3C1)OCO5` [Obliquine], the EC50 [1, 12] is reported as 73.6 µM, the EC50 [1, 15] is reported as 73.6 µM and the “inhibition of HIV-1GFP, dose dependence” value [2] is reported as “dose-dependent inhibition of HIV-1”. For the same compound, the EC50 ([2]; Homo sapiens, THP-1, 72 h) was 153 µM, the viability at 72 h, 100 µM ([3]; Huh7 hepatocyte-derived carcinoma cells) was 82.6% and the “concentration at which Huh7 cell viability is reduced” value ([4]; 72 h) was 100 µM. The viability at 72 h, 100 µM [5] was 55.3% and the CC50 at 72 h ([5]; CC50 THP-1, 72 h, ATP levels) was 127 µM.
For `OC1C=C2C3CN(Cc4cc5c(cc43)OCO5)C2CC1O` (centres unmarked) [Pancracine], the “DENVGFP inhibition at 1.56 µM” value ([1]; Huh7 cells) was “Complete inhibition”, the EC50 [1, 12] was 0.358 µM and the EC50 [1, 13] was 0.357 µM. For the same compound, the EC50 [1, 15] was 0.36 µM, the “HIV-1GFP inhibition at 100 µM” value [2] was “Complete viral inhibition” and the “inhibition of HIV-1GFP, dose dependence” value [2] was “dose-dependent inhibition of HIV-1”. For the same compound, the EC50 ([2]; Homo sapiens, THP-1, 72 h) was 18.5 µM, the EC50 [2] was 18.5 µM and the “live Huh7 cells” value ([4]; 6.25 µM, 72 h) was 78.1%. The “concentration at which Huh7 cell viability is reduced” value ([4]; 72 h) was 6.25 µM, the “live THP-1 cells” value [8] was 82% and the “concentration … to decrease” value [8] was 3.125 µM. The CC50 at 72 h ([5]; CC50 THP-1, 72 h, ATP levels) was 25.9 µM.
With `Cc1nnc(C(=O)NC(C)(C)c2nc(C(=O)NCc3ccc(F)cc3)c(O)c(=O)n2C)o1` [Raltegravir, reference compound] the “HIV-1 infection with positive control” value [2] was “completely impeded HIV-1 infection”.
With `CO[C@@H]1C=C[C@@]23c4cc5c(cc4CO[C@]2(O)CN(C)[C@H]3C1)OCO5` [Tazettine] the EC50 [1, 12] was 12.5 µM, the “reduction of A431 cell viability” value [6] was 15–30% and the “inhibition of HIV-1GFP, dose dependence” value [2] was “dose-dependent inhibition of HIV-1”. For the same compound, the EC50 ([2]; Homo sapiens, THP-1, 72 h) was 120 µM, the viability at 72 h, 50 µM [3] was 85.2% and the “concentration at which Huh7 cell viability is reduced” value ([4]; human, 72 h) was “higher than 50 µM”. The viability at 72 h, 100 µM [5] was 60.9%, the CC50 at 72 h ([5]; CC50 THP-1, 72 h, ATP levels) was 137 µM and the “reduction of Hacat cell viability” value [9] was 15–30%.
Work on `O[C@@H]1C=C[C@]23CCN(Cc4cc5c(cc42)OCO5)[C@H]3C1` [Vittatine] yielded an EC50 [1, 12] of 15.5 µM.
For `COC1C=CC23c4cc5c(cc4C(OC(=O)c4ccc(Br)cc4)N(CC2OC(=O)c2ccc(Br)cc2)C3C1)OCO5` (centres unmarked) [compound 11, 6,11-O,O′-Di-p-Bromobenzoyl Ester of haemanthidine], the “effect on AGS cell viability” value ([7]; MTT) was “able to reduce AGS cell viability”.
With `COC1C=CC23c4cc5c(cc4C(OC(=O)c4ccc(Br)cc4)N(CC2OC(=O)c2ccc(Br)cc2)C3C1)OCO5` (centres unmarked) [compound 12, 6,11-O,O′-Di-p-Bromobenzoyl Ester of haemanthidine] the “effect on AGS cell viability” value ([7]; MTT) was “able to reduce AGS cell viability”.

From PMC9029599, “Cytotoxicity and Antiviral Properties of Alkaloids Isolated from Pancratium maritimum” (Toxins, 2022)
